Laboratory results from ChEMBL document CHEMBL1268811, “A retro-inverso TAT-like peptide designed to deliver cysteamine to cells” (Bioorg Med Chem Lett, 2010).
*1 amine or outer side, *2 acyl side, *3 side chain or, on linkers, in order; H or OH if unused. Where a SMILES comes first, the peptide text is derived from it. The star is where a group is joined. 5TAMRA = CN(C)c1ccc2c(c1)Oc1cc(N(C)C)ccc1C21OC(=O)c2cc(C(=O)*)ccc21; Cysteamine = C(CS[*:2])N[*:1]

test: Drug uptake in lysosomes of human HeLa cells transfected with Cerulean-Lamp-1 plasmid at 1 uM after 1 hr by fluorescence microscopy; format: ADME, cell-based, Lysosome; call rule not given here

Compound | Drug uptake
CN(C)c1ccc2c(c1)Oc1cc(N(C)C)ccc1C21OC(=O)c2cc(C(=O)N[C@@H](CCCNC(=N)N)C(=O)N[C@@H](CCCNC(=N)N)C(=O)N[C@@H](CCCNC(=N)N)C(=O)N[C@@H](CCC(N)=O)C(=O)N[C@@H](CCCNC(=N)N)C(=O)N[C@@H](CCCNC(=N)N)C(=O)N[C@@H](CSSCCN)C(=O)N[C@@H](CSSCCN)C(=O)N[C@@H](CCCNC(=N)N)C(=O)NCC(=O)N[C@@H](Cc3ccc(O)cc3)C(=O)O)ccc21 (5TAMRA-RRRQRRC(Cysteamine)C(Cysteamine)RGY-OH) | Active
CN(C)c1ccc2c(c1)Oc1cc(N(C)C)ccc1C21OC(=O)c2cc(C(=O)N[C@@H](CCCNC(=N)N)C(=O)N[C@@H](CCCNC(=N)N)C(=O)N[C@@H](CCCNC(=N)N)C(=O)N[C@@H](CCC(N)=O)C(=O)N[C@@H](CCCNC(=N)N)C(=O)N[C@@H](CCCNC(=N)N)C(=O)N[C@@H](CS)C(=O)N[C@@H](CS)C(=O)N[C@@H](CCCNC(=N)N)C(=O)NCC(=O)N[C@@H](Cc3ccc(O)cc3)C(=O)O)ccc21 (5TAMRA-RRRQRRCCRGY-OH) | Not Active
CN(C)c1ccc2c(c1)Oc1cc(N(C)C)ccc1C21OC(=O)c2cc(C(=O)N[C@@H](CCCNC(=N)N)C(=O)N[C@@H](CCCNC(=N)N)C(=O)N[C@@H](CCCNC(=N)N)C(=O)N[C@@H](CCC(N)=O)C(=O)N[C@@H](CCCNC(=N)N)C(=O)N[C@@H](CCCNC(=N)N)C(=O)N[C@@H](CSSCCN)C(=O)N[C@@H](CS)C(=O)N[C@@H](CCCNC(=N)N)C(=O)NCC(=O)N[C@@H](Cc3ccc(O)cc3)C(=O)O)ccc21 (5TAMRA-RRRQRRC(Cysteamine)CRGY-OH) | Not Active
CN(C)c1ccc2c(c1)Oc1cc(N(C)C)ccc1C21OC(=O)c2cc(C(=O)N[C@@H](CCCNC(=N)N)C(=O)N[C@@H](CCCNC(=N)N)C(=O)N[C@@H](CCCNC(=N)N)C(=O)N[C@@H](CCC(N)=O)C(=O)N[C@@H](CCCNC(=N)N)C(=O)N[C@@H](CCCNC(=N)N)C(=O)N[C@@H](CS)C(=O)N[C@@H](CSSCCN)C(=O)N[C@@H](CCCNC(=N)N)C(=O)NCC(=O)N[C@@H](Cc3ccc(O)cc3)C(=O)O)ccc21 (5TAMRA-RRRQRRCC(Cysteamine)RGY-OH) | Not Active
